Source: the supplement of paper PMC10307832

Columns and labels:
Assay in all cases: relative viability (nuclei count vs DMSO), 5 days (fraction); higher = more cells survive
[1] = compound: CN(c1ncccc1CNc1nc(Nc2ccc3c(c2)CC(=O)N3)ncc1C(F)(F)F)S(C)(=O)=O + O=C(CCCCCCC(=O)Nc1ccccc1)NO [Vorinostat] (partner 1 µM)
Procedure, shortened: (§1)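 Relative viability equals treated-well nuclei counts divided by vehicle-well nuclei counts. Counts came from 4× images of lung cancer cell lines grown in 1536-well plates for 5 days after pin-tool dosing on the day after seeding. Dosing used one drug alone or a fixed anchor-drug dose plus five library-drug doses (not always all listed) in √10 steps, and values are medians of duplicate plates.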

[2] = compound: CN(c1ncccc1CNc1nc(Nc2ccc3c(c2)CC(=O)N3)ncc1C(F)(F)F)S(C)(=O)=O + Nc1nc2[nH]cc(CCc3ccc(C(=O)N[C@@H](CCC(=O)O)C(=O)O)cc3)c2c(=O)[nH]1 [Pemetrexed] (partner 0.2 µM)
Procedure, shortened: as §1

[3] = compound: CN(c1ncccc1CNc1nc(Nc2ccc3c(c2)CC(=O)N3)ncc1C(F)(F)F)S(C)(=O)=O + Cc1nc(Nc2ncc(C(=O)Nc3c(C)cccc3Cl)s2)cc(N2CCN(CCO)CC2)n1 [Dasatinib] (partner 0.075 µM)
Procedure, shortened: as §1

[4] = compound: CN(c1ncccc1CNc1nc(Nc2ccc3c(c2)CC(=O)N3)ncc1C(F)(F)F)S(C)(=O)=O + CC(=O)c1c(C)c2cnc(Nc3ccc(N4CCNCC4)cn3)nc2n(C2CCCC2)c1=O [Palbociclib] (partner 0.5 µM)
Procedure, shortened: as §1

Cell Line	relative viability ([1]; first compound 0.01 µM)	relative viability ([1]; first compound 0.03162 µM)	relative viability ([1]; first compound 0.1 µM)	relative viability ([1]; first compound 0.3162 µM)	relative viability ([1]; first compound 1 µM)	relative viability ([2]; first compound 0.01 µM)	relative viability ([2]; first compound 0.03162 µM)	relative viability ([2]; first compound 0.1 µM)	relative viability ([2]; first compound 0.3162 µM)	relative viability ([2]; first compound 1 µM)	relative viability ([3]; first compound 0.01 µM)	relative viability ([3]; first compound 0.03162 µM)	relative viability ([3]; first compound 0.1 µM)	relative viability ([3]; first compound 0.3162 µM)	relative viability ([3]; first compound 1 µM)	relative viability ([4]; first compound 0.01 µM)	relative viability ([4]; first compound 0.03162 µM)	relative viability ([4]; first compound 0.1 µM)	relative viability ([4]; first compound 0.3162 µM)	relative viability ([4]; first compound 1 µM)
NCI-H2087	0.722	0.872	0.901	0.613	0.589	0.695	0.751	0.685	0.728	0.584	0.828	0.795	0.61	0.542	0.451	0.23	0.277	0.258	0.252	0.279
NCI-H2126	0.76	0.845	0.642	0.831	0.701	0.7	0.718	0.615	0.697	0.632	0.55	0.559	0.469	0.381	0.347	0.358	0.351	0.308	0.352	0.306
NCI-H2170	0.817	0.882	0.836	0.832	0.859	0.305	0.268	0.269	0.266	0.274	0.455	0.526	0.461	0.504	0.404	0.422	0.434	0.39	0.382	0.388
NCI-H2228	0.42	0.579	0.758	0.882	0.547	0.368	0.343	0.366	0.313	0.355	0.549	0.433	0.42	0.404	0.339	0.836	0.878	0.881	0.749	0.6
NCI-H2342	0.772	0.848	0.696	0.646	0.803	0.775	0.885	0.801	0.789	0.757	0.32	0.306	0.306	0.286	0.297	0.564	0.536	0.548	0.497	0.455
NCI-H2347	0.584	0.615	0.527	0.54	0.413	0.474	0.434	0.403	0.44	0.399	0.283	0.313	0.331	0.297	0.283	0.434	0.389	0.426	0.354	0.377
NCI-H2405	0.961	0.724	0.971	0.761	0.868	1.06	1.01	0.984	0.924	0.832	0.229	0.197	0.184	0.22	0.218	0.51	0.518	0.504	0.466	0.391
NCI-H3122	1.03	0.963	1.04	1	1.06	0.202	0.194	0.175	0.181	0.193	0.802	1.02	0.787	0.746	0.764	0.204	0.188	0.155	0.202	0.149
